# pIC50, pKi: −log10 of the molar value. The source made the active and inactive calls. No cut-off for these calls is given here.
# Experiments:
# [1] = Inhibition of [125I] Ang2 binding to AT1 receptor in Sprague-Dawley rat VSMC after 150 mins by gamma-counter method
# Rattus norvegicus [2] = test: […] activity in spontaneous hypertensive rat assessed as reduction in blood pressure at 5 to 10 mg/kg, po; format: functional, organism-based
# Rattus norvegicus [3] = test: […] activity in spontaneous hypertensive rat assessed as maximum reducing response of mean blood pressure at 10 mg/kg, po; format: functional
# Rattus norvegicus [4] = test: […] activity in spontaneous hypertensive rat at 10 mg/kg, po after 24 hrs; format: functional, organism-based
# Rattus norvegicus [5] = test: […] activity in spontaneous hypertensive rat assessed as reduction in blood pressure at 10 mg/kg, po; format: functional, organism-based
pIC50 [1],pKi [1],Structure (SMILES),Activity (Rattus norvegicus [2]),Activity (Rattus norvegicus [3]) [mmHg],Activity (Rattus norvegicus [4]),Activity (Rattus norvegicus [5])
8.07,8.21,CCCCc1nc2c(C)cc(C(=O)NCCc3ccccc3)cc2n1Cc1cccc2c1ccn2-c1ccccc1C(=O)O,,,,
8.59,8.72,CCCc1nc2c(C)cc(C(=O)NCCc3ccccc3)cc2n1Cc1ccc2c(ccn2-c2ccccc2C(=O)O)c1,Active,57.9,Active,
7.92,8.06,CCc1nc2c(C)cc(C(=O)NCCc3ccccc3)cc2n1Cc1ccc2c(ccn2-c2ccccc2C(=O)O)c1,,,,
8.32,8.46,CCc1nc2c(C)cc(C(=O)NCCc3ccccc3)cc2n1Cc1cccc2c1ccn2-c1ccccc1C(=O)O,,,,
8.43,8.57,CCCCc1nc2c(C)cc(C(=O)NCCc3ccccc3)cc2n1Cc1ccc2c(ccn2-c2ccccc2C(=O)O)c1,Active,,,
8.64,8.77,CCCc1nc2c(C)cc(C(=O)NCCc3ccccc3)cc2n1Cc1cccc2c1ccn2-c1ccccc1C(=O)O,Active,57.6,Active,
7.84,7.98,CCCCc1nc(Cl)c(CO)n1Cc1ccc(-c2ccccc2-c2nnn[nH]2)cc1 [LOSARTAN],,,,Active

# — ChEMBL document CHEMBL4376813, “Design, synthesis and biological evaluation of AT1 receptor blockers derived from 6-substituted aminocarbonyl benzimidazoles” (Eur J Med Chem, 2019)
